Results published in patent EP4725957A1, “GROUP OF CYCLIC ALKALINE LIPOPEPTIDE COMPOUNDS, AND PREPARATION METHOD THEREFOR AND USE THEREOF” (Institute of Medicinal Biotechnology, Chinese Academy of …, priority 2023, dated 2024).
Values after ≈ are worked out from the molar mass of the structure shown. Where two headings read alike, the source gives them in different places. Bridge positions count the residues as written; N and C are the ends. Square brackets hold non-standard residues; d marks the D form. Peptide text beside a SMILES is read from it. * marks the point of attachment. Heptanoyl(6-Me) = CC(C)CCCCC(=O)*; Sulfomethyl = O=S(=O)(O)C*; Nonanoyl = CCCCCCCCC(=O)*; X1 = CC[C@H](C)CCCCC(=O)*; dDab = NCC[C@@H](N)C(=O)O; Heptanoyl = CCCCCCC(=O)*; Octanoyl = CCCCCCCC(=O)*; dDap = NC[C@@H](N)C(=O)O; Dab = NCC[C@H](N)C(=O)O; Dap = NC[C@H](N)C(=O)O

How the values were obtained:
Format in all cases: cell-based
[1] = tested on: Klebsiella pneumoniae KPN+19-15
How it was run: (§1)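 MIC by CLSI broth microdilution; MH broth; final drug 64–0.03 mg/L, 2-fold; inoculum (2-4) × 10^5 CFU/mL from 0.5 McFarland suspension of 18-24 h colonies; 35-37°C, 16-20 h; growth controls included.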

[2] = tested on: Acinetobacter baumannii NCTC 13304 (OXA-27)
How it was run: as §1

[3] = tested on: Escherichia coli ATCC BAA-2523
How it was run: as §1

[4] = tested on: Klebsiella pneumoniae ATCC BAA-1705 (KPC)
How it was run: as §1

[5] = tested on: Escherichia coli ATCC BAA-2340 (KPC)
How it was run: as §1

[6] = tested on: Pseudomonas aeruginosa ATCC 27853
How it was run: as §1

[7] = tested on: Acinetobacter baumannii ABA19-1
How it was run: as §1

[8] = tested on: Pseudomonas aeruginosa PAE19-3
How it was run: as §1

[9] = Nephrotoxicity assay: in vitro cytotoxicity of HK-2 cells by CCK-8 assay; settings: human, HK-2 cells (human renal), 72 h incubation with drug-containing medium
How it was run: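 Compounds in sterile water, diluted to final 500, 250, 200, 100, 50, 25 and 12.5 µg/mL, were applied for 72 h to human HK-2 kidney cells. Absorbance at 450 nm after 3 h CCK-8 gave viability against untreated wells, and IC50 came from logarithmic regression; three replicates.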

SMILES	MIC ([1]; KPN+19-15) [µg/mL]	MIC ([2]; NCTC 13304) [µg/mL]	MIC ([3]; ATCC BAA-2523) [µg/mL]	MIC ([4]; ATCC BAA-1705) [µg/mL]	MIC ([5]; ATCC BAA-2340) [µg/mL]	MIC ([6]; ATCC 27853) [µg/mL]	MIC ([7]; ABA19-1) [µg/mL]	MIC ([8]; PAE19-3) [µg/mL]	IC50 at 72 h [9] [µg/mL]	MIC ([1]; Klebsiella pneumoniae KPN 19-15) [µg/mL]	MIC ([2]; Acinetobacter baumannii NCTC 13304 (OXA-27)) [µg/mL]	MIC ([3]; Escherichia coli ATCC BAA-2523) [µg/mL]	MIC ([4]; Klebsiella pneumoniae ATCC BAA-1705 (KPC)) [µg/mL]	MIC ([5]; Escherichia coli ATCC BAA-2340 (KPC)) [µg/mL]	MIC ([6]; Pseudomonas aeruginosa ATCC27853) [µg/mL]	MIC ([7]; Acinetobacter baumannii ABA19-1) [µg/mL]	MIC ([8]; Pseudomonas aeruginosa PAE19-3) [µg/mL]
CC(C)CCCCC(=O)N[C@@H](CN)C(=O)N[C@H](C(=O)N[C@H](CCN)C(=O)N[C@H]1CCNC(=O)[C@H]([C@@H](C)O)NC(=O)[C@H](CCN)NC(=O)[C@H](CCN)NC(=O)[C@H](CC(C)C)NC(=O)[C@@H](CC(C)C)NC(=O)[C@H](CCN)NC1=O)[C@@H](C)O [Compound 97, 6-methylheptanoyl-Dap-Thr-D-Dab-ring(4-10)[Dab-Dab-D-Leu-Leu-Dab-Dab-Thr]] ({Heptanoyl(6-Me)}-[Dap]T[dDab][Dab][Dab][dL]L[Dab][Dab]T; lactam 4-C)	0.03 (≈ 0.0263 µM)	0.03 (≈ 0.0263 µM)	0.03 (≈ 0.0263 µM)	0.03 (≈ 0.0263 µM)	0.03 (≈ 0.0263 µM)	0.5 (≈ 0.438 µM)	0.03 (≈ 0.0263 µM)	0.5 (≈ 0.438 µM)	217 ± 11.2 (≈ 190 µM)								
CCCCCCCC(=O)N[C@@H](CN)C(=O)N[C@H](C(=O)N[C@H](CCN)C(=O)N[C@H]1CCNC(=O)[C@H]([C@@H](C)O)NC(=O)[C@H](CCN)NC(=O)[C@H](CCN)NC(=O)[C@H](CC(C)C)NC(=O)[C@@H](CC(C)C)NC(=O)[C@H](CCN)NC1=O)[C@@H](C)O [Compound 98, Octanoyl-Dap-Thr-D-Dab-ring(4-10)[Dab-Dab-D-Leu-Leu-Dab-Dab-Thr]] (Octanoyl-[Dap]T[dDab][Dab][Dab][dL]L[Dab][Dab]T; lactam 4-C)	0.03 (≈ 0.0263 µM)	0.03 (≈ 0.0263 µM)	0.03 (≈ 0.0263 µM)	0.03 (≈ 0.0263 µM)	0.03 (≈ 0.0263 µM)	0.5 (≈ 0.438 µM)	0.03 (≈ 0.0263 µM)	0.5 (≈ 0.438 µM)	238 ± 9.9 (≈ 209 µM)								
CCCCCCC(=O)N[C@@H](CN)C(=O)N[C@H](C(=O)N[C@H](CCN)C(=O)N[C@H]1CCNC(=O)[C@H]([C@@H](C)O)NC(=O)[C@H](CCN)NC(=O)[C@H](CCN)NC(=O)[C@H](CC(C)C)NC(=O)[C@@H](CC(C)C)NC(=O)[C@H](CCN)NC1=O)[C@@H](C)O [Compound 99, Heptanoyl-Dap-Thr-D-Dab-ring(4-10)[Dab-Dab-D-Leu-Leu-Dab-Dab-Thr]] (Heptanoyl-[Dap]T[dDab][Dab][Dab][dL]L[Dab][Dab]T; lactam 4-C)	0.03 (≈ 0.0266 µM)	0.03 (≈ 0.0266 µM)	0.06 (≈ 0.0532 µM)	0.03 (≈ 0.0266 µM)	0.06 (≈ 0.0532 µM)	1 (≈ 0.887 µM)	0.03 (≈ 0.0266 µM)	1 (≈ 0.887 µM)	317 ± 18.1 (≈ 281 µM)								
CCCCCCCCC(=O)N[C@@H](CN)C(=O)N[C@H](C(=O)N[C@H](CCN)C(=O)N[C@H]1CCNC(=O)[C@H]([C@@H](C)O)NC(=O)[C@H](CCN)NC(=O)[C@H](CCN)NC(=O)[C@H](CC(C)C)NC(=O)[C@@H](CC(C)C)NC(=O)[C@H](CCN)NC1=O)[C@@H](C)O [Compound 100, Nonanoyl-Dap-Thr-D-Dab-ring(4-10)[Dab-Dab-D-Leu-Leu-Dab-Dab-Thr]] (Nonanoyl-[Dap]T[dDab][Dab][Dab][dL]L[Dab][Dab]T; lactam 4-C)	0.06 (≈ 0.0519 µM)	0.06 (≈ 0.0519 µM)	0.125 (≈ 0.108 µM)	0.06 (≈ 0.0519 µM)	0.125 (≈ 0.108 µM)	1 (≈ 0.865 µM)	0.06 (≈ 0.0519 µM)	1 (≈ 0.865 µM)	117 ± 15.6 (≈ 101 µM)								
CC[C@H](C)CCCCC(=O)N[C@@H](CCN)C(=O)N[C@H](C(=O)N[C@H](CN)C(=O)N[C@H]1CCNC(=O)[C@H]([C@@H](C)O)NC(=O)[C@H](CCN)NC(=O)[C@H](CCN)NC(=O)[C@H]([C@@H](C)O)NC(=O)[C@H](Cc2ccccc2)NC(=O)[C@H](CCN)NC1=O)[C@@H](C)O [Compound 101, (S)-6-methyloctanoyl-Dab-Thr-D-Dap-ring(4-10)[Dab-Dab-Phe-Thr-Dab-Dab-Thr]] (X1-[Dab]T[dDap][Dab][Dab]FT[Dab][Dab]T; lactam 4-C)	>64	>64	>64	>64	>64	>64	>64	>64	> 500								
CC(C)CCCCC(=O)N[C@@H](CCN)C(=O)N[C@H](C(=O)N[C@H](CN)C(=O)N[C@H]1CCNC(=O)[C@H]([C@@H](C)O)NC(=O)[C@H](CCN)NC(=O)[C@H](CCN)NC(=O)[C@H]([C@@H](C)O)NC(=O)[C@H](Cc2ccccc2)NC(=O)[C@H](CCN)NC1=O)[C@@H](C)O [Compound 102, 6-methylheptanoyl-Dab-Thr-D-Dap-ring(4-10)[Dab-Dab-Phe-Thr-Dab-Dab-Thr]] ({Heptanoyl(6-Me)}-[Dab]T[dDap][Dab][Dab]FT[Dab][Dab]T; lactam 4-C)									> 500	>64	>64	>64	>64	>64	>64	>64	>64
CC(C)CCCCC(=O)N[C@@H](CCN)C(=O)N[C@H](C(=O)N[C@H](COCS(=O)(=O)O)C(=O)N[C@H]1CCNC(=O)[C@H]([C@@H](C)O)NC(=O)[C@H](CCN)NC(=O)[C@H](CCN)NC(=O)[C@H]([C@@H](C)O)NC(=O)[C@@H](Cc2ccccc2)NC(=O)[C@H](CCN)NC1=O)[C@@H](C)O [Compound 103, 6-methylheptanoyl-Dab-Thr-D-Ser(CH2SO3H)-ring(4-10)[Dab-Dab-D-Phe-Thr-Dab-Dab-Thr]] ({Heptanoyl(6-Me)}-[Dab]T[dS](Sulfomethyl)[Dab][Dab][dF]T[Dab][Dab]T; lactam 4-C)	0.125 (≈ 0.0993 µM)	0.06 (≈ 0.0477 µM)	0.03 (≈ 0.0238 µM)	0.125 (≈ 0.0993 µM)	0.03 (≈ 0.0238 µM)	0.25 (≈ 0.199 µM)	0.06 (≈ 0.0477 µM)	0.25 (≈ 0.199 µM)	> 500								
CC(C)CCCCC(=O)N[C@@H](CCN)C(=O)N[C@H](C(=O)N[C@H](CO)C(=O)N[C@H]1CCNC(=O)[C@H]([C@@H](C)O)NC(=O)[C@H](CCN)NC(=O)[C@H](CCN)NC(=O)[C@H]([C@@H](C)O)NC(=O)[C@@H](Cc2ccccc2)NC(=O)[C@H](CCN)NC1=O)[C@@H](C)OCS(=O)(=O)O [Compound 104, 6-methylheptanoyl-Dab-Thr(CH2SO3H)-D-Ser-ring(4-10)[Dab-Dab-D-Phe-Thr-Dab-Dab-Thr]] ({Heptanoyl(6-Me)}-[Dab]T(Sulfomethyl)[dS][Dab][Dab][dF]T[Dab][Dab]T; lactam 4-C)	0.125 (≈ 0.0993 µM)	0.06 (≈ 0.0477 µM)	0.03 (≈ 0.0238 µM)	0.125 (≈ 0.0993 µM)	0.03 (≈ 0.0238 µM)	0.25 (≈ 0.199 µM)	0.06 (≈ 0.0477 µM)	0.25 (≈ 0.199 µM)	> 500								
CC(C)CCCCC(=O)N[C@@H](CCN)C(=O)N[C@H](C(=O)N[C@H](CO)C(=O)N[C@H]1CCNC(=O)[C@H]([C@@H](C)O)NC(=O)[C@H](CCN)NC(=O)[C@H](CCN)NC(=O)[C@H]([C@@H](C)OCS(=O)(=O)O)NC(=O)[C@@H](Cc2ccccc2)NC(=O)[C@H](CCN)NC1=O)[C@@H](C)O [Compound 105, 6-methylheptanoyl-Dab-Thr-D-Ser-ring(4-10)[Dab-Dab-D-Phe-Thr(CH2SO3H)-Dab-Dab-Thr]] ({Heptanoyl(6-Me)}-[Dab]T[dS][Dab][Dab][dF]T(Sulfomethyl)[Dab][Dab]T; lactam 4-C)	0.125 (≈ 0.0993 µM)	0.06 (≈ 0.0477 µM)	0.03 (≈ 0.0238 µM)	0.125 (≈ 0.0993 µM)	0.03 (≈ 0.0238 µM)	0.25 (≈ 0.199 µM)	0.06 (≈ 0.0477 µM)	0.25 (≈ 0.199 µM)	> 500								
CC(C)CCCCC(=O)N[C@@H](CCN)C(=O)N[C@H](C(=O)N[C@H](CO)C(=O)N[C@H]1CCNC(=O)[C@H]([C@@H](C)OCS(=O)(=O)O)NC(=O)[C@H](CCN)NC(=O)[C@H](CCN)NC(=O)[C@H]([C@@H](C)O)NC(=O)[C@@H](Cc2ccccc2)NC(=O)[C@H](CCN)NC1=O)[C@@H](C)O [Compound 106, 6-methylheptanoyl-Dab-Thr-D-Ser-ring(4-10)[Dab-Dab-D-Phe-Thr-Dab-Dab-Thr(CH2SO3H)]] ({Heptanoyl(6-Me)}-[Dab]T[dS][Dab][Dab][dF]T[Dab][Dab]T(Sulfomethyl); lactam 4-C)	0.125 (≈ 0.0993 µM)	0.06 (≈ 0.0477 µM)	0.03 (≈ 0.0238 µM)	0.125 (≈ 0.0993 µM)	0.03 (≈ 0.0238 µM)	0.25 (≈ 0.199 µM)	0.06 (≈ 0.0477 µM)	0.25 (≈ 0.199 µM)	> 500								
